From US20100113415A1, “EPHA4 RTK INHIBITORS FOR TREATMENT OF NEUROLOGICAL AND NEURODEGENERATIVE DISORDERS AND CANCER” (priority 2008, published 2010)

Legend:
C2C12 cells = assay: Proliferation assay (cell confluence), C2C12 cells; assay type: cell-based, mouse; settings: at 5 μM
Experimental: C2Cl2 were plated at 15,000 cells per well and then differentiated into myotubes with DMEM supplemented with 2% horse serum for 3 days in 24 well ImageLock™ plate (Essen Instruments, MI, USA). Primary Rat cortical astrocytes were plated at 3.105 cells/ml onto 24 well ImageLock™ plate.
Cells were placed into the IncuCyte™ at 37° C. and 95% CO2/5% O2, for two to three days. During this time, the cells within each well were repeatedly imaged at fixed time intervals (every three hours). The IncuCyte™ system automatically monitored the proliferation using the percentage of confluence. Percent of confluence can be graphed over time to evaluate the characteristics of proliferation in the presence of pharmacological agents.
Compounds were tested at 5 μM in quadruplicate. The percentage of reduction of cell confluence was calculated from the AUCs in comparison with the AUCs of the control wells (1% DMSO).

Jak2 = target: T1, Jak2 (Homo sapiens, UniProt O60674); assay: Jak2 kinase counterscreen enzymatic assay (TR-FRET); assay type: biochemical; settings: 5 μM ATP
T1 construct: purchased Cell Signaling, USA
T1 sequence (O60674 whole entry, species assumed): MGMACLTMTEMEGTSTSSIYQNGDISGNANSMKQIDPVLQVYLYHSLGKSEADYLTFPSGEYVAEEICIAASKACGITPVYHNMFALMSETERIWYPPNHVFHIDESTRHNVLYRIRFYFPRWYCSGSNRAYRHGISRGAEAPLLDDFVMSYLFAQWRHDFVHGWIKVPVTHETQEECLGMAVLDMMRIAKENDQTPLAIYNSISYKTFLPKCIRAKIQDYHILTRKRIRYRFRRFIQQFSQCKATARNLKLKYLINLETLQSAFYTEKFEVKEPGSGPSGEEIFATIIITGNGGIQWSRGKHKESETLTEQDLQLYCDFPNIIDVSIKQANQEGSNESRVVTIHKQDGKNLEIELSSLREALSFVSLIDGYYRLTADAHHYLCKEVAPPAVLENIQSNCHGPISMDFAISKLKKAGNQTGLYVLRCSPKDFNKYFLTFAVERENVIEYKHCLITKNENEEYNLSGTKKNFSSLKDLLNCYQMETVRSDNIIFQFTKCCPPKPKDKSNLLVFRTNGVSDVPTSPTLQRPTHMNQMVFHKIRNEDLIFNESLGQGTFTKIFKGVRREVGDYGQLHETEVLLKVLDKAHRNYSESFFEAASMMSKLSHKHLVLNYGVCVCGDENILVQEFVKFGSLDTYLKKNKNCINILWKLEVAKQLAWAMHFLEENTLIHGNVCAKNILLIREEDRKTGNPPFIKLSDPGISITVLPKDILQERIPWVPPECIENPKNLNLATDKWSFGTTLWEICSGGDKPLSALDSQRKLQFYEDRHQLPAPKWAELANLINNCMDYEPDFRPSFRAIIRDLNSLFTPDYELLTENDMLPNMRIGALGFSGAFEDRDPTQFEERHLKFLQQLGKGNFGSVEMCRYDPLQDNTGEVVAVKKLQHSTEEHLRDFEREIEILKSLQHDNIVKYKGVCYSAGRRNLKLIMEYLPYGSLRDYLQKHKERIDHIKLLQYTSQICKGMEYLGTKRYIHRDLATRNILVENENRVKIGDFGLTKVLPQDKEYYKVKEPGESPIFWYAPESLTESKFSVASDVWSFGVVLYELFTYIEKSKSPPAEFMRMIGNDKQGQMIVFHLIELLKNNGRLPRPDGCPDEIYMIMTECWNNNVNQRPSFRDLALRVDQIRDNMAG
Experimental: Counterscreen assays were developed for the tyrosine kinases src kinase and Jak2 kinase, with a format essentially identical to the EphA4 kinase TR-FRET format. Jak2 (50 ng) (Cell Signaling, USA) was incubated with 0.5 μM of biotinylated FLT3 peptide (Cell Signaling, USA) in presence of 5 μM of ATP (Sigma). P60c-src (10 U/well) (Upstate biotechnology, USA) was incubated with biotinylated Poly(Glu Tyr) peptide (100 nM) in presence of 0.5 μM of ATP. The enzymatic reaction was stopped after 60 min by adding 15 mM EDTA. The detection reaction and energy transfer signal measurements were similar to those previously described. Results were expressed as ratios of the absorbencies 665/615.
(§1) Compounds were titrated in duplicate at 11 points concentration starting at 100 μM with a 3 fold increment. Compounds were diluted in DMSO. […] Percentage inhibition for each compound was then calculated based on the value of the 100% inhibition. Concentration-response curves were represented and the concentrations for 50% inhibition (IC50) were calculated.

[1] = target: T2, Recombinant EphA4 kinase His6-TEV-EphA4 (aa. 615-911) (Homo sapiens, UniProt P54764); assay: EphA4 kinase enzymatic assay (TR-FRET); assay type: biochemical; settings: for IC50: 25 μM ATP, TR-FRET; for inhibition at up to 100 µM: maximum percent inhibition, titration starting at 100 μM, read-out: EphA4 Kinase max inhibition in %
T2 construct: His6-TEV-EphA4 (36 KD) (aa. 615-911); His6 (N); TEV cleavage site (N); made in house; host or cells: Sf9 (baculovirus)
T2 sequence (P54764 615-911): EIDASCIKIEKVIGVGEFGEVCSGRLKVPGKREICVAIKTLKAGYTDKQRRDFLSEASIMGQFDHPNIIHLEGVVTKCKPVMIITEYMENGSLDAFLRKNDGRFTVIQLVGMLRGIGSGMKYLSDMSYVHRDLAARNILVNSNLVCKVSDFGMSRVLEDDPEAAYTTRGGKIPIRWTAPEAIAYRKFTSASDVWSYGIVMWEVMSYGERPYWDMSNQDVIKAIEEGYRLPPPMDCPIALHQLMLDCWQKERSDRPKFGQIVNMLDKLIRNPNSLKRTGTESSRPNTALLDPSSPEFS
Experimental: Recombinant EphA4 kinase His6-TEV-EphA4 (36 KD) (aa. 615-911) was expressed in Sf9 using baculovirus expression system. Hi-tagged protein was purified by high performance liquid chromatography in two step, using a His Trap HP column and a heparin column. The potency of compounds to inhibit EphA4 kinase phosphorylation was measured by an enzymatic assay based on time resolved fluorescence energy transfer assay format (TR-FRET), using Eu-W1024 anti-pTyr antibody (Perkin Elmer, USA) as a donor and SureLight APC (Perkin Elmer, USA) as an acceptor.
Biotinylated Poly(Glu Tyr) peptide (50 nM) was incubated in 384-well with 25 μM ATP (Sigma) and 10 ng EphA4 kinase in NEBuffer (New England Biolabs) for 60 minutes at rt. The reaction was stopped by 15 mM of EDTA solution for 10 minutes at rt. The detection mixture containing 0.5 nM Eu-W1024 anti-pTyr antibody (Perkin Elmer, USA) and 50 nM SureLight APC (Perkin Elmer, USA) was added to the wells and the plate was incubated for 30 min at rt, while protected from light. Energy transfer signal was measured using a Victor 2V (excitation filter 340, emission filter 615 and 665, delay time 50 μs). Results were expressed as ratios of the absorbencies 665/615.
as §1

[2] = system: Jak2/Stat3 activation with Interferon Gamma in MCF-7 cells; assay: Cell-based counterscreen assay (IFN-γ activated Jak2/Stat3, pGAS-Luc in MCF-7 cells); settings: for IC50: Homo sapiens, MCF7, inflexion point, read-out: Cell Counter Screen Assay IP
Excerpt: EphA4 cell-based assay was based on the signaling pathway of EphA4, which involves activation of the tyrosine kinase Jak2 and the transcriptional activator Stat3. However, pharmacological agents could also interfere downstream of EphA4 signaling and particularly on Jak2 activity. To counterscreen this potential effect unrelated to EphA4 activity, a new assay was designed based on direct activation of the tyrosine kinase Jak2 and the transcriptional activator Stat3 with Interferon Gamma (IFN-γ).
MCF-7 cells were maintained in MEM growth media, supplemented with 10% fetal bovine serum, 2 mM L-glutamine, 1.5 g/L sodium bicarbonate, 0.1 mM non-essential amino acids, 1 mM sodium pyruvate, and 0.01 mg/ml bovine insulin. For the luciferase assay MCF-7 cells were co-transfected the next day with 50 μg of pGAS-Luc and 5 μg of empty vector pRL-CMV, which encoded the Renilla luciferase, and was included in the transfection mix for normalization. Six hours after transfection the cells were trypsinized and plated at 4.105 cells/ml into 96 well Black/Clear Poly-D-Lysine coated plates (Biocoat) that had been pre-spotted with compounds. IFN-γ (BD Pharmingen, USA) was then added to the wells. Cells were lysed the next day using the Reporter Lysis Buffer (Promega), and the luciferase activity was measured using the Dual Luciferase Assay (Promega) following the manufacturer's directions. The Firefly and Renilla luminescences are read consecutively on a Top-Count (Perkin-Elmer).
Results are expressed as a ratio of the two luminescence: Firefly Luciferase/Renilla Luciferase. Cell viability was assessed on parallel plates using the Cell Glo Assay (Promega) following the manufacturer's directions. Results are expressed as percent of cell death in comparison with vehicle-treated wells.
Compounds were titrated in duplicate at 10 points concentration starting at 100 μM with a 1.5 fold increment. Concentration-response curves were represented and the concentrations at the inflexion point (IP) were calculated. The maximum effect was given by the maximum percent inhibition calculated from the results of the control wells (containing only DMSO).

| SMILES | % Reduction of Confluence C2C12 Cells (C2C12 cells) [% at 5 μM] | IC50 (Jak2) [µM] | IC50 [1] [µM] | inhibition at up to 100 µM [1] [%] | Cell Counter Screen Assay max inhibition in % [2] [%] | IC50 [2] [µM] |
| --- | --- | --- | --- | --- | --- | --- |
| CC1CCc2c(-c3ccccc3Cl)nc3[nH]nc(N)c3c2C1 (stereo not drawn) [Example 63] | 9.2 | > 100 | 2.1 | 99 | 82 | 20 |
| Cc1ccccc1-c1nc2[nH]nc(N)c2c2c1CCC(C)(C)C2 [Example 67] | 49.2 | 1 | 1.5 | 100 | 81 | 13 |
